Test results: patent publication US20230265116A1, “DEGRADATION OF (EGFR) BY CONJUGATION OF EGFR INHIBITORS WITH E3 LIGASE LIGAND AND METHODS OF USE” (BEIGENE, LTD., priority 2020, published 2023)

Key:
[1] = system: EGFR Del19/T790M/C797S (BaF3-DTC cells); assay: EGFR degradation HTRF assay, BaF3-DTC cells; assay type: cell-based; settings: 16h treatment; for DTC Dmax (%): maximum percentage of degradation; for DC50: read-out: DTC DC50
Method in brief: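 EGFR remaining after a 16 h, 37 °C exposure (8 doses, 5-fold steps from 10 uM final, 0.2% DMSO) was quantified by HTRF antibodies in cell lysate. Percent inhibition relative to DMSO control was fitted by four-parameter logistic to give DC50; Dmax denotes maximal degradation.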

[2] = biological target: T1, EGFR L858R/T790M/C797S (BaF3-LTC cells) (Homo sapiens, UniProt P00533, C797S/L858R/T790M); assay: EGFR degradation HTRF assay, BaF3-LTC cells; assay type: cell-based; settings: BaF3-LTC, 16h treatment; for Dmax: maximum percentage of degradation, read-out: LTC Dmax (%); for DC50: read-out: LTC DC50
T1 construct: expressed in transfected cells; host or cells: BaF3
T1 sequence (P00533 25-1210 T790M/C797S/L858R): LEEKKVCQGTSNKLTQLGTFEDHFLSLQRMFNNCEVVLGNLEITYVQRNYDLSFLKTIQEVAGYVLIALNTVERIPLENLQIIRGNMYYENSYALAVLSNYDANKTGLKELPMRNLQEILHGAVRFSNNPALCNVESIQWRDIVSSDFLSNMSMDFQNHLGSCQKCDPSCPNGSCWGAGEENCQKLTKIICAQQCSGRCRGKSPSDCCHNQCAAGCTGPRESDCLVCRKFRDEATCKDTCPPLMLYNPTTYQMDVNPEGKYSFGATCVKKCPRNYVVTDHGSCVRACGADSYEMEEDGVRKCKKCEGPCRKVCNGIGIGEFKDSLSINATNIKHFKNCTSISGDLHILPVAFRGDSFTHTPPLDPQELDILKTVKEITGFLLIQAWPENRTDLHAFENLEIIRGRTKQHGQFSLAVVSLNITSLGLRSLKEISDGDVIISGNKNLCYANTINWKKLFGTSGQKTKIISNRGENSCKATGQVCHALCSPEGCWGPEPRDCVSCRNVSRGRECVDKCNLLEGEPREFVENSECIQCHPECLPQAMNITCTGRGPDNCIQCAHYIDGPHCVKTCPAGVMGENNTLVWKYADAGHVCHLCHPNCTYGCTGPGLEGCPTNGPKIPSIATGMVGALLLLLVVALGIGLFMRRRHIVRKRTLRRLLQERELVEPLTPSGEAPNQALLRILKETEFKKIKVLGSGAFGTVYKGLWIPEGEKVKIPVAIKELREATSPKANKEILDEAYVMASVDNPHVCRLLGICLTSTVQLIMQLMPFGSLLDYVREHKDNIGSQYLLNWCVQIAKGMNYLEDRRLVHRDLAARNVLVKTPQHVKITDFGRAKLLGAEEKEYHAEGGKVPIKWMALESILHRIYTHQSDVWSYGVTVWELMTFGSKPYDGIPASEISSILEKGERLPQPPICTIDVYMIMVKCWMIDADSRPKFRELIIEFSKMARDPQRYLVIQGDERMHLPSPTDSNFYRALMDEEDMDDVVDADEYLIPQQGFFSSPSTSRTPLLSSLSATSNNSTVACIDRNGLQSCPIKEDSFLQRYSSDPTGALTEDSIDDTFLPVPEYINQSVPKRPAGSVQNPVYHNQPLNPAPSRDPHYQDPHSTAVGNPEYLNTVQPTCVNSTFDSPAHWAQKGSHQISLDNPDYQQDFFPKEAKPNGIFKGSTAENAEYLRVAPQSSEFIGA
Method in brief: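 Cells treated 16 h at 37 °C, 5% CO2 in medium with 0.2% DMSO; top final concentration 10 uM, 5-fold dilution, 8 doses. Lysates read by HTRF (665/620 nm); degradation % versus DMSO high control, DC50 from four-parameter fit, Dmax as maximal degradation.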

Row | DC50 [1] [nM] | Dmax [2] [%] | DC50 [2] [nM] | SMILES | DTC Dmax (%) [1] [%]
1 | 3.98 | 90.4 | 21.9 | CCc1cc(Nc2ncc(Br)c(Nc3ccc4nc(C)ccc4c3P(C)(C)=O)n2)c(OC)cc1N1CCC(N2CCN(CCCOc3cc(F)c(C4CCC(=O)NC4=O)c(F)c3)CC2)CC1 (stereo not drawn) [Example 704, 3-(4-(3-(4-(1-(4-((5-bromo-4-((5-(dimethylphosphoryl)-2-methylquinolin-6-yl)amino)pyrimidin-2-yl)amino)-2-ethyl-5-methoxyphenyl)piperidin-4-yl)piperazin-1-yl)propoxy)-2,6-difluorophenyl)piperidine-2,6-dione] | 82.31
2 | 8.28 | 77.6 | 25.3 | CCc1cc(Nc2ncc(Br)c(Nc3ccc4nccnc4c3P(C)(C)=O)n2)c(OC)cc1N1CCC(N2CCN(CC3CN(c4ccc(C5CCC(=O)NC5=O)cc4)C3)CC2)CC1 (stereo not drawn) [Example 231, 3-(4-(3-((4-(1-(4-((5-bromo-4-((5-(dimethylphosphoryl)quinoxalin-6-yl)amino)pyrimidin-2-yl)amino)-2-ethyl-5-methoxyphenyl)piperidin-4-yl)piperazin-1-yl)methyl)azetidin-1-yl)phenyl)piperidine-2,6-dione] | 76.04
3 | 6.15 | 92.5 | 9.47 | CCc1cc(Nc2ncc(Br)c(Nc3ccc4nccnc4c3P(C)(C)=O)n2)c(OC)cc1N1CCC(N2CCN(C[C@H]3CCN(c4ccc5c(c4)CN(C4CCC(=O)NC4=O)C5=O)C3)CC2)CC1 (stereo partly drawn) [Example 237, 3-(5-((R)-3-((4-(1-(4-((5-bromo-4-((5-(dimethylphosphoryl)quinoxalin-6-yl)amino)pyrimidin-2-yl)amino)-2-ethyl-5-methoxyphenyl)piperidin-4-yl)piperazin-1-yl)methyl)pyrrolidin-1-yl)-1-oxoisoindolin-2-yl)piperidine-2,6-dione] | 92.67
4 | 15.2 | 85 | 21.5 | CCc1cc(Nc2ncc(Br)c(Nc3ccc4nccnc4c3P(C)(C)=O)n2)c(OC)cc1N1CCC(N2CCN(CCCCc3cc(F)c(C4CCC(=O)NC4=O)c(F)c3)CC2)CC1 (stereo not drawn) [Example 282, 3-(4-(4-(4-(1-(4-((5-bromo-4-((5-(dimethylphosphoryl)quinoxalin-6-yl)amino)pyrimidin-2-yl)amino)-2-ethyl-5-methoxyphenyl)piperidin-4-yl)piperazin-1-yl)butyl)-2,6-difluorophenyl)piperidine-2,6-dione] | 93.51
5 | 44.4 | 83.5 | 71.8 | CCc1cc(Nc2ncc(Br)c(Nc3ccc4nccnc4c3P(C)(C)=O)n2)c(OC)cc1N1CCN(C2CCN(C3CCC(c4ccc(C5CCC(=O)NC5=O)cc4)C3)CC2)CC1 (stereo not drawn) [Example 178, 3-(4-(3-(4-(4-(4-((5-bromo-4-((5-(dimethylphosphoryl)quinoxalin-6-yl)amino)pyrimidin-2-yl)amino)-2-ethyl-5-methoxyphenyl)piperazin-1-yl)piperidin-1-yl)cyclopentyl)phenyl)piperidine-2,6-dione] | 81.18
6 | 2.8 | 88.6 | 11.1 | CCc1cc(Nc2ncc(Br)c(Nc3ccc4cc(C)ncc4c3P(C)(C)=O)n2)c(OC)cc1N1CCC(N2CCN(CCc3cc(F)c(C4CCC(=O)NC4=O)c(F)c3)CC2)CC1 (stereo not drawn) [Example 200, 3-(4-(2-(4-(1-(4-((5-bromo-4-((8-(dimethylphosphoryl)-3-methylisoquinolin-7-yl)amino)pyrimidin-2-yl)amino)-2-ethyl-5-methoxyphenyl)piperidin-4-yl)piperazin-1-yl)ethyl)-2,6-difluorophenyl)piperidine-2,6-dione] | 93.3
